Several values for one entry are separate records, joined by “and”; a condition that tells them apart may be missing. Identical values can stand only once.
Tests used:
[1] = test system: EBV; assay: Patients with EBV-associated PTLD treated with CMX001; type: in vivo, human
Source text: The first patient is a patient with a history of sickle cell anemia developed EBV-associated intracranial post-transplant lymphoproliferative disorder (PTLD). EBV was positive in the plasma (7 Dec. and 14 Dec. 2010) and brain biopsies were consistent with PTLD. In early December, the patient presented with a 3 day history of persistent headache, nausea, vomiting, and diarrhea. […] The patient was admitted to PICU. High intracranial pressure, repetitive seizures associated with apnea led to intubtion and emergency request for CMX001. The use of CMX001 in this patient with EBV-associated PTLD is ongoing since 26 Dec. 2009.
The second patient was a heart transplant recipient with EBV-associated PTLD. The patient acquired a primary EBV infection post-operatively. […] The clinical condition continued to destabilize with what was presumed to be EBV-associated encephalitis with EBV detected in the CSF, clinical and EEG-correlated seizure activity and decreased responsiveness and changes in mental status. At the time of request for CMX001, the patient was on mechanical ventilation, had evidence of both pneumonia and PTLD of their lungs, evidence of seizure activity with clinical criteria for encephalopathy being present. The patient received their first dose of CMX001, 20 mg (approximately 3.3 mg/kg) on 3 Mar. 2010, and their second dose on 7 Mar. […] The patient continued to show evidence of progressive neurologic injury. The parents withdrew support on the day following their second dose of CMX001.

[2] = test system: BK Virus; settings: has been reported; read-out: EC50 for BK virus infection; cited from earlier work
[3] = test system: vaccinia virus; type: in vivo, human; settings: detectable while on ST-246 and VIG
[4] = Safety and pharmacokinetics of CMX001 in healthy volunteers; type: in vivo, human; settings: for AUC / Cmax: blood, Human, analyte = label
Method: An initial study was conducted to evaluate the safety and pharmacokinetics of CMX001 in healthy volunteers. The study consisted of a single dose arm (SD) and a multiple dose arm (MD). In the single dose arm 7 cohorts of 6 subjects were treated (4 subjects received active drug and 2 placebo). Enrollment was staggered as 2 subjects (one active, one placebo) followed by 4 subjects (Groups A and B). The estimated single doses for the two highest doses treated for a […] subject were 40 mg (0.6 mg/kg cohort 6) and 70 mg (1 mg/kg cohort 7). In the multiple dose arm, cohort 6MD received 0.1 mg/kg on Day 0, 6 and 12; Cohort 7MD received 0.2 mg/kg on Day 0, 6 and 12. Levels of cidofovir, CMX001 and CMX064 (major metabolite) were measured in blood and urine of subjects during the course of the study. Gastrointestinal (GI) monitoring of the subjects included (a) monitoring for clinical signs of GI adverse events, (b) monitoring for clinical symptoms using a visual Analog Scale, (c) monitoring for appetite loss/anorexia, nausea, vomiting, diarrhea, constipation and intestinal gas/bloating, (d) laboratory tests for fecal occult blood; serum electrolytes, urine specific gravity, BUN/creatinine ratio; serum albumin, and lipids, and (e) diagnostic studies (the Wireless capsule endoscopy (PillCam®, Given Imaging)).

[5] = test system: CMV; settings: human, in vivo
[6] = Single-dose, dose-escalation study in healthy adult volunteers; type: in vivo, human
Method: A randomized double-blind, placebo-controlled, single-dose, dose-escalation study of CMX001 in healthy adult volunteers was conducted.
Nine single dose cohorts-CMX001:placebo (2:1)
Six subjects per cohort; 36 received CMX001; 18 received placebo
Highest dose was 2 mg/kg (140 mg in a 70 kg person)
Six multiple dose cohorts-CMX001:placebo (2:1) (3 doses over 3 weeks)
Five subjects per cohort; 20 received CMX001; 10 received placebo

[7] = type: in vivo, human; settings: individual patients
[8] = test system: Variola major; assay: organism not typed; type: cell-based
[9] = test system: ADV; assay: Retrospective analysis of EIND patients with AdV disease; type: in vivo, human
Method: The records of patients who were granted emergency investigational-new-drug approval for CMX001 for treatment of AdV were analyzed retrospectively. Of the 16 patients with AdV disease treated with CMX001, 13 had data available for ≧4 weeks after starting CMX001. Doses of CMX001 ranged from approximately 1 mg/kg once weekly to 4 mg/kg twice weekly. Adenovirus qPCR was performed at VireCor (9 cases), Focus Diagnostics (2) and Molecular Virology Laboratory, University of Washington (2). Disseminated AdV disease was defined by the isolation of the virus from 2 or more sites, including blood. At the end of CMX001 treatment, virologic response (VR) was defined as either ≧99% drop in plasma VL from baseline or undetectable plasma virus. The Wilcoxon signed rank test was used to evaluate whether VL changed from baseline to weeks 1, 2, 4, 6, and 8. Logistic regression models were employed to evaluate possible associations between covariates and VR.

[10] = test system: HHV-6; assay: In vitro potency against dsDNA viruses: HHV-6; type: cell-based
[11] = cohort 6, 600 μg/kg, still blinded
[12] = human, oral, CMX001 2 mg/kg single dose, plasma, Mean

Structure (SMILES): CCCCCCCCCCCCCCCCOCCCOP(=O)(O)CO[C@H](CO)Cn1ccc(N)nc1=O [CMX001, Hexadecyloxypropyl-cidofovir]
- EBV viral load ([1]; heart transplant recipient, 7 Mar. 2010 after first dose 20 mg (3 Mar. 2010: 267,338)): 47,427 copies/mL
- EBV in the plasma ([1]; patient, 4 mg/kg twice weekly): remains negative
- tolerability ([1]; patient, 4 mg/kg twice weekly): tolerated CMX001 well
- EC50 [2]: 140 nM
- viable vaccinia in lesions [3]: Eliminated
- AUC ([4]; 0.05 mg/kg, CMX001 0.050 mg/kg): 36.3 ng·h/mL
- Cmax ([4]; 0.05 mg/kg, CMX001 0.050 mg/kg): 5.63 ng/mL
- AUC ([4]; 0.1 mg/kg, CMX001 0.100 mg/kg): 133 ng·h/mL
- Cmax ([4]; 0.1 mg/kg, CMX001 0.100 mg/kg): 10.6 ng/mL
- AUC ([4]; 0.2 mg/kg, CMX001 0.200 mg/kg): 225 ng·h/mL
- Cmax ([4]; 0.2 mg/kg, CMX001 0.200 mg/kg): 24.5 ng/mL
- AUC ([4]; 0.4 mg/kg, CMX001 0.400 mg/kg): 526 ng·h/mL
- Cmax ([4]; 0.4 mg/kg, CMX001 0.400 mg/kg): 68.1 ng/mL
- AUC ([4]; 0.6 mg/kg, CMX001 0.600 mg/kg): 729 ng·h/mL
- Cmax ([4]; 0.6 mg/kg, CMX001 0.600 mg/kg): 115 ng/mL
- AUC ([4]; CMX001 0.025 mg/kg): 18.5 ng·h/mL
- Cmax ([4]; CMX001 0.025 mg/kg): 2.36 ng/mL
- adverse events [4, 11]: No serious adverse events (SAEs)
- clinical laboratory values [4, 11]: No drug associated clinically significant changes to clinical laboratory values
- serious adverse events [5]: No trends were observed in serious adverse events
- AUC(0-t) [6, 12]: 2610 ng·h/mL
- Cmax [6, 12]: 350 ng/mL
- Tmax [6, 12]: 3 h
- half-life [6, 12]: 24 h
- AUC(0-inf) ([6]; human, oral, CMX001 2 mg/kg single dose, plasma, Mean, read-out: AUCinf_obs): 2650 ng·h/mL
- tolerability ([6]; single and multiple doses): well tolerated
- WBC (3) ([7]; value on day one of CMX001 treatment): 3.6 (3) and 5.2 (3) and 2.17 (3)
- WBC (4) ([7]; value on last day of CMX001 treatment): 5.4 (4) and 4.3 (4)
- Enhanced Activity ([8]; CMX001 versus cidofovir EC50): 271
- EC50 ([8]; Vero 76): 100 nM
- patients achieving virologic response (VR) ([9]; 8 of 13 patients, VR = ≧99% drop in plasma VL or undetectable): 61.5%
- safety ([9]; 13 patients): No serious adverse events, gastro-intestinal, renal or bone marrow toxicity were reported
- Median decrease from baseline, adenovirus viral load ([9]; Week 1): 1.43 log10
- Median decrease from baseline, adenovirus viral load ([9]; Week 2): 1.71 log10
- Median decrease from baseline, adenovirus viral load ([9]; Week 4): 1.89 log10
- Median decrease from baseline, adenovirus viral load ([9]; Week 6): 2.44 log10
- Median decrease from baseline, adenovirus viral load ([9]; Week 8): 2.98 log10
- Enhanced Activity ([10]; CMX001 versus cidofovir EC50): 50
- EC50 ([10]; HSB2, HSB-2): 4 nM
